# Laboratory results as given in patent US12281225B2, “Process for preparing stable polymers containing vinylimidazole” (BASF SE, priority 2018, dated 2025).
# Columns and labels:
# [1] = Physical stability; visual assessment (color, turbidity, phase separation); format: physicochemical; set-up: key: ++: no discernible change with respect to color, turbidity or phase separation; +: marginal change in color number, somewhat increased Tyndall effect but no turbidity; 0: easily discernible increase in color number and moderate turbidity−no phase separation; −: turbidity and change in color number readily discernible by visual assessment; −−: strong color change with strong turbidity and incipient phase separation
# Source text: Physical stability; visual assessment according to:
# ++=no discernible change with respect to color, turbidity or phase separation; +=marginal change in color number, somewhat increased Tyndall effect but no turbidity; 0=easily discernible increase in color number and moderate turbidity−no phase separation; − turbidity and change in color number readily discernible by visual assessment; −− strong color change with strong turbidity and incipient phase separation.
# Before storage, all batches could be rated ++ (no turbidity or phase separation; no influence of the biocide on the color number of the product).
# [2] = tested on: Bacteria: Escherichia coli, Staphylococcus aureus, Pseudomonas aeruginosa, Pseudomonas putida, Burkholderia cepacia, Alcaligenes faecalis; assay: Preservation test with periodic inoculation, bacteria assessment; format: cell-based; details: sample stored 60 d at 40° C.
# Experimental: (§1) Microbiological results at the start (freshly formulated, i.e. 4-week test series is started immediately) and after 60 days of storage at 40° C. (i.e. the 4-week microbial testing is started with the sample stored at 40° C. for 60 days)
# (§2) The test described below is carried out in order to ascertain the preserving effect of chemical preservatives in aqueous products and systems, the principle of the described method reflecting the efficacy of chemical preservatives with respect to pot-maintenance of aqueous products/systems under conditions corresponding to the use of laundry products/consumer products by the consumer. For this purpose, the preservatives to be tested are added in those concentrations which correspond to from the literature or to the manufacturer data from the suppliers (e.g. Thor, Speyer). In said test, our orientation was toward the upper range, which, with the exception of VI-containing polymers, had always led to excellent results in the case of aqueous polymers for laundry.
# (§3) A constant microorganism load is achieved by periodic inoculation of the test batches. Before the swabs of each batch made respectively immediately in parallel with the inoculation. The assessment is made on the basis of the microbial growth of the streaks.
# (§4) When carrying out said tests, 25 g of the polymer to be tested are weighed in each case into a vessel with a screw cap. The preservatives to be tested are each added in separate batches according to the specified use concentrations. An unpreserved product sample was used in each case for the growth control. Two days after the addition of the preservative, the samples are infected with 0.5 ml of inoculum (2% w/w). The titer of this inoculant solution is 10^9 organisms per ml. The following microorganisms are the test organisms for the preservation test:
# (§5) • Escherichia coli • Staphylococcus aureus • Pseudomonas aeruginosa • Pseudomonas putida • Burkholderia cepacia • Alcaligenes faecalis Yeast: • Candida albicans • Candida valida • Rhodotorula rura • Saccharomyces cerevisiae
# (§6) The test batches are inoculated four times altogether and once a week and are streaked on an agar plate once a week; the first streaking is done immediately before the new inoculation. Microbial growth on the agar surface is assessed after a three-day incubation at 25° C. As a precaution, negative swabs are additionally observed for a further three days and reassessed. The preserving effect is effected in a semiquantitative method via the growth of the individual streaks in accordance with the assessment from − via + to +++. The preservative result is repeatedly demonstrably robust, i.e. +++− defines the microbial growth.
# (§7) When assessing the results, it is assumed that a preservative can be regarded as good if there are batches under the above-described laboratory conditions for a period of four weeks without microbial invasion of the sample, and that, even after the fourth inoculation, no microbial attacks occur growth can be identified. • −−: no growth • −: slight growth, max. 100 colonies • 0: moderate growth, max. 400 colonies • +: uniform growth with individual colonies still easily identifiable • ++: strong growth; too many colonies to be counted, already some extensive growth
# [3] = tested on: Yeast: Candida albicans, Candida valida, Rhodotorula rura, Saccharomyces cerevisiae; assay: Preservation test with periodic inoculation, yeast assessment; format: cell-based; details: for Start sample measurement, yeast assess., 4th inoculation: freshly formulated; for 60 d 40° C., yeast assess., 4th inoculation: sample stored 60 d at 40° C.
# Experimental: as §1, §2, §3, §4, §5, §6, §7
compound,measurement,setting,value
"CCCCCCCCCCCCCCCC[n+]1ccccc1 [CPC, cetylpyridinium chloride]","Physical stability, 60 d 40° C.*",[1]; Polymer P1 with stabilizer,+
same,"Physical stability, 60 d 40° C.*",[1]; Polymer P2 with stabilizer,+
same,"Physical stability, 60 d 40° C.*",[1]; Polymer P3 with stabilizer,+
same,"Physical stability, 60 d 40° C.*",[1]; Polymer P4 with stabilizer,+
same,"Physical stability, 60 d 40° C.*",[1]; Polymer P5 (HP56) with stabilizer,+
same,"Physical stability, 60 d 40° C.*",[1]; Polymer P6 with stabilizer,+
same,"Physical stability, 60 d 40° C.*",[1]; Polymer P7 with stabilizer,+
same,"Physical stability, 60 d 40° C.*",[1]; Polymer P8 with stabilizer,+
same,"Physical stability, 60 d 40° C.*",[1]; Polymer P9 with stabilizer,+
same,"60 d 40° C., bact. assess., 4th inoculation",[2]; Polymer P1,"− (slight growth, max. 100 colonies)"
same,"60 d 40° C., bact. assess., 4th inoculation",[2]; Polymer P2,"− (slight growth, max. 100 colonies)"
same,"60 d 40° C., bact. assess., 4th inoculation",[2]; Polymer P3,"− (slight growth, max. 100 colonies)"
same,"60 d 40° C., bact. assess., 4th inoculation",[2]; Polymer P4,"0 (moderate growth, max. 400 colonies)"
same,"60 d 40° C., bact. assess., 4th inoculation",[2]; Polymer P5 (HP56),"− (slight growth, max. 100 colonies)"
same,"60 d 40° C., bact. assess., 4th inoculation",[2]; Polymer P6,"− (slight growth, max. 100 colonies)"
same,"60 d 40° C., bact. assess., 4th inoculation",[2]; Polymer P7,"− (slight growth, max. 100 colonies)"
same,"Start sample measurement, yeast assess., 4th inoculation",[3]; Polymer P1,"− (slight growth, max. 100 colonies)"
same,"60 d 40° C., yeast assess., 4th inoculation",[3]; Polymer P1,"− (slight growth, max. 100 colonies)"
same,"Start sample measurement, yeast assess., 4th inoculation",[3]; Polymer P2,"− (slight growth, max. 100 colonies)"
same,"60 d 40° C., yeast assess., 4th inoculation",[3]; Polymer P2,"− (slight growth, max. 100 colonies)"
same,"Start sample measurement, yeast assess., 4th inoculation",[3]; Polymer P3,"− (slight growth, max. 100 colonies)"
same,"60 d 40° C., yeast assess., 4th inoculation",[3]; Polymer P3,"0 (moderate growth, max. 400 colonies)"
same,"Start sample measurement, yeast assess., 4th inoculation",[3]; Polymer P4,"− (slight growth, max. 100 colonies)"
same,"60 d 40° C., yeast assess., 4th inoculation",[3]; Polymer P4,"0 (moderate growth, max. 400 colonies)"
same,"Start sample measurement, yeast assess., 4th inoculation",[3]; Polymer P5 (HP56),"− (slight growth, max. 100 colonies)"
same,"60 d 40° C., yeast assess., 4th inoculation",[3]; Polymer P5 (HP56),"0 (moderate growth, max. 400 colonies)"
same,"Start sample measurement, yeast assess., 4th inoculation",[3]; Polymer P6,"− (slight growth, max. 100 colonies)"
same,"60 d 40° C., yeast assess., 4th inoculation",[3]; Polymer P6,"0 (moderate growth, max. 400 colonies)"
same,"Start sample measurement, yeast assess., 4th inoculation",[3]; Polymer P7,"− (slight growth, max. 100 colonies)"
same,"60 d 40° C., yeast assess., 4th inoculation",[3]; Polymer P7,"0 (moderate growth, max. 400 colonies)"
same,"Start sample measurement, yeast assess., 4th inoculation",[3]; Polymer P8,"− (slight growth, max. 100 colonies)"
same,"60 d 40° C., yeast assess., 4th inoculation",[3]; Polymer P8,"0 (moderate growth, max. 400 colonies)"
same,"Start sample measurement, yeast assess., 4th inoculation",[3]; Polymer P9,"− (slight growth, max. 100 colonies)"
same,"60 d 40° C., yeast assess., 4th inoculation",[3]; Polymer P9,"− (slight growth, max. 100 colonies)"
